Read-outs that look alike come from different tables or passages of the source.
What was measured:
PNT2 = test: LDH cell viability assay, normal prostate epithelial cells; assay type: cell-based, human; conditions: Homo sapiens, PNT2, 24 h, LDH assay
Experimental: (§1) Normal prostate epithelial cells (PNT2), two prostate cancer cell lines (Du145 and PC3), human keratinocytes (HaCaT), two melanoma cell lines (A375 and HTB140) and two colon cancer cell lines (HT29 and Caco-2) were treated with 3 at a concentration range 1.0–50.0 µg/mL. Viability of the cells was estimated using lactate dehydrogenase (LDH) assay.
(§2) Cytotoxic activity of 3 was tested on human cancer and normal cells, grouped in three panels: prostate, skin and gastrointestinal. The prostate panel comprised prostate cancer cell lines DU145 (ATCC HTB-81) and PC3 (ATCC CRL-1435) and prostate normal epithelial cells PNT2 (ECACC 95012613). Melanoma cell lines A375 (ATCC CRL-1619) and HTB140 (ATCC Hs 294T) together with human keratinocytes HaCaT (obtained as a kind gift of Prof. Marta Michalik, Department of Cell Biology, Jagiellonian University) were included in the skin panel. Two colon cancer cell lines, namely Caco-2 (ATCC HTB-37) and HT29 (ATCC HTB-38), constituted the gastrointestinal panel. Du145 cells were grown in a modified Eagle’s medium with low (1.0 g/L) glucose concentration; HT29, PC3 and PNT-2 cells were grown in Dulbecco’s modified Eagle’s medium (DMEM) and F12 HAM Nutrient Mixture; Caco-2 cells were grown in modified Eagle’s medium with nonessential amino acids (NEAA); and melanoma cells and keratinocytes were maintained in modified Eagle’s medium with high (4.5 g/L) glucose concentration. The culture media contained antibiotics and 10% fetal bovine serum (FBS). All cultures were maintained at 37 °C in a humidified, 5% CO2-containing atmosphere.
(§3) The examined compound (3) was diluted in the culture media from freshly made stock solution in MeOH (10 mg/mL) to the working concentrations (from 0 to 50 μg/mL). Cell viability was determined as described previously. […] Then, the culture medium was replaced with the medium containing different concentrations of the assessed compound (1–50 μg/mL). After 24 h of incubation, the viability of the cells was determined using colorimetric lactate dehydrogenase (LDH) assay in comparison to the controls to which corresponding aliquots of MeOH diluted with culture media were added. Cells grown in the medium without the tested compound were used as control I (negative), and the positive control (control II) was obtained by incubation of the cells in the medium containing 1% Triton X-100. LDH released from the damaged cells into the cell culture medium was quantified by measuring the absorbance at 490 nm using a Synergy II Biotek microplate reader. Cytotoxicities of the examined compounds were calculated as follows: ((absorbance of the tested sample−absorbance of control I)/(absorbance of control II−absorbance of control I)) × 100. Results were means of three independent measurements (± SD). Doxorubicin (Ebewe Pharma G.m.b.H., Unterach, Austria) was used as a reference cytostatic drug.

[1] = as above; assay type: cell-based, human; conditions: human, PNT2 normal prostate epithelial cells, 24 h, read-out: Cell Viability (%) ± SD
Experimental: as §1, §2, §3

HepG2 cells = tested on: HepG2 cells; set-up: method as in PMID 29751555; conditions: HepG2, cell density 2 × 10^4, 96 h treatment; cited from earlier work

C=C1C(=O)O[C@H]2[C@H]1[C@@H](O)[C@H](OC(=O)CC(C)C)[C@H](C)CCC(=O)[C@](C)(O)[C@@H]2OC(=O)C(C)C [Compound 3]
IC50 (PNT2; value in parentheses, read-out: IC50 (IC50 µM) (converted)): 35 µM
IC50 (PNT2; read-out: IC50): 16.4 ± 0.4 µg/mL
viability at 24 h, 1 µg/mL ([1]; PNT2, 1 µg/mL): 87.1 ± 1.79%
viability at 24 h, 3 µg/mL ([1]; PNT2, 3 µg/mL): 77.2 ± 1.32%
viability at 24 h, 5 µg/mL ([1]; PNT2, 5 µg/mL): 69.4 ± 0.97%
viability at 24 h, 10 µg/mL ([1]; PNT2, 10 µg/mL): 52.8 ± 2.31%
viability at 24 h, 20 µg/mL ([1]; PNT2, 20 µg/mL): 32.5 ± 1.84%
viability at 24 h, 30 µg/mL ([1]; PNT2, 30 µg/mL): 21.4 ± 0.45%
viability at 24 h, 50 µg/mL ([1]; PNT2, 50 µg/mL): 3.29 ± 1.27%
IC50 (HepG2 cells): 17 µM
